Test results reported in patent publication US20220187274A1, “NEMATODE TRAP PLATE AND USE THEREFOR” (priority 2019, published 2022).

Columns and labels:
[1] = tested on: C. elegans; test: Conventional chemotaxis evaluation method on assay plate with sodium azide (Comparative Example 1); type: in vivo, Caenorhabditis elegans; details: Comparative Example 1, conventional method; undiluted solution and test solution with a large dilution factor; three tests
Description: As a comparative example, evaluation of a response of nematodes was conducted in accordance with a conventional chemotaxis evaluation method (e.g., Non-Patent Literature 1). […] Similarly to the test in Example 1, an undiluted solution of diacetyl and diluted solutions prepared by diluting diacetyl at five different concentrations were used as test solutions. One drop of the test solution was dripped on each of two positions (test solution spots) on a left half of a circle with a radius of 3 cm about the center of the assay plate. Meanwhile, the buffer solution serving as the control was dripped on each of positions (control spots) that were on a right half of the circle with a radius of 3 cm about the center of the assay plate and that were arranged point symmetrically. […] Based on the captured image of the entire assay plate, an example of which is shown in FIG. 11, the number of nematodes fixed under anesthesia was counted in each of test solution areas extending concentrically from the two test solution spots on the left part and control areas extending concentrically from the two control spots on the right part. […] The response of the nematodes was evaluated with use of the chemotaxis index (C.I.), which was used also in Example 1, assuming that the number of nematodes in the test solution areas was N1 and the number of nematodes in the control areas was N2. […]

[2] = tested on: C. elegans; test: Nematode trap plate (PASS) olfaction test, chemotaxis index to a volatile substance; type: in vivo, Caenorhabditis elegans
Description: (Method for Evaluating Test Result) On the basis of the number of nematodes caught in the fall-in cavity which number has been obtained in the above-described manner, a response of the nematodes is evaluated. In the olfaction test or gustation test for evaluating a response of the nematodes to a chemical substance or the like, it is possible to evaluate the response on the basis of, e.g., a chemotaxis index (it may sometimes be abbreviated as “C.I.”). The chemotaxis index, which is used to evaluate the taxis of the test subject to the chemical substance or the like, is defined by in the following manner. That is, the number of nematodes caught in a control fall-in cavity is subtracted from the number of nematodes caught in a fall-in cavity for the test subject so that a difference is yielded, and the difference is divided by the total number of nematodes caught in all the fall-in cavities. In a case where there exist two or more fall-in cavities for the test subject, the total number of nematodes caught in these fall-in cavities is considered as “the number of nematodes caught in the fall-in cavity for the test subject”. Similarly, in a case where there exist two or more control fall-in cavities, the total number of nematodes caught in these control fall-in cavities is considered as “the number of nematodes caught in the control fall-in cavity”. Specifically, the chemotaxis index (C.I.) can be obtained by the following formula, where Ni is the total number of nematodes caught in the fall-in cavity for the test subject and N2 is the total number of nematodes caught in the control fall-in cavity.
Chemotaxis index (C.I.)=(N1−N2)/(N1+N2).
In the Examples shown below, tests were conducted by using C. elegans as the nematodes, unless otherwise stated. In each of the Examples, a commercially-available circular plastic dish was used as the container of the nematode trap plate. The size of the plastic dish, the capacity (volume) of a solid medium mainly made of an agar, and the number of fall-in cavities to be formed were set as appropriate in consideration of the purpose of the test, the volume of a sample obtained, and the like. In each case, the fall-in cavities were formed in the shape of a cylinder having a diameter of approximately 5 mm. […] The following description will be made by using the names of the plates shown in Table 1 (plate A1, plate A2, plate B1, plate B2, plate B3, plate B4, and plate B5).
First, a plate A1 was produced that included (a) two fall-in cavities 2a formed in a left part of a solid medium so as to be arranged side by side along the outer periphery of the solid medium and (b) two fall-in cavities 2b formed in control positions in a right part of the solid medium in a similar manner to the fall-in cavities 2a. […]
Then, the response was evaluated. […]

[3] = tested on: hetero group M of free-living soil nematodes (collected at Ogasawara village, Tokyo, Japan); test: Nematode trap plate olfaction test with soil nematodes other than C. elegans, group M; type: in vivo; details: Example 15, plate A1, 1 mM diluted solution, negative = avoidance
Description: (§1) Example 15 was conducted for the purpose of studying applicability of the plate of the present invention to evaluation of a response of nematodes other than C. elegans. Specifically, the test was conducted to examine a response of a hetero group M of free-living soil nematodes (collected at Ogasawara village, Tokyo, Japan) and a hetero group H of free-living soil nematodes (collected at Takayama city, Gifu, Japan) with respect to a volatile substance. A plate A1 identical to that produced in Example 1 was produced. Left fall-in cavities 2a were filled with a test solution, whereas right fall-in cavities 2b were filled with a buffer solution as a control. The test solution used in Example 15 was a diluted solution (1 mM) of vanillin, which is a kind of volatile substance. […] Then, the plate was left at least for an hour under a light-shielded environment. […] The chemotaxis index (C.I.) was obtained in a similar manner to Example 1, and the response of the nematodes was evaluated. […] Note that the tests involving use of the nematode group M and the nematode group H were conducted independently.

[4] = tested on: hetero group H of free-living soil nematodes (collected at Takayama city, Gifu, Japan); test: Nematode trap plate olfaction test with soil nematodes other than C. elegans, group H; type: in vivo; details: Example 15, plate A1, 1 mM diluted solution, positive = attraction
Description: as §1

## CC(=O)C(C)=O [diacetyl]
[1]
  Chemotaxis index (C.I.): a positive value was obtained in one case, and a negative value was obtained in another case
[2]; Example 1, plate A1, four other dilution concentrations among six, all three tests, positive = attraction
  Chemotaxis index (C.I.): positive values
[2]; Example 1, plate A1, two highest concentrations among six (undiluted 11.5 M to 100000-fold dilution), all three tests, negative = escaping
  Chemotaxis index (C.I.): negative values
[2]; Example 2, plate A2 (solid medium volume twice that of A1), six concentrations, undiluted to 100000-fold, three tests
  Chemotaxis index (C.I.): the same results as in Example 1

## COc1cc(C=O)ccc1O [vanillin]
[3]
  Chemotaxis index (C.I.): negative C.I. value
[4]
  Chemotaxis index (C.I.): positive C.I. value

## O=Cc1ccccc1 [benzaldehyde]
[2]; Example 3, plate B1, each of three dilutions from 10000-fold to 100000-fold of 9.8 M undiluted solution, mean of four tests, maximum 1.0
  Chemotaxis index (C.I.): not less than 0.9
